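These data come from cells grown in 96-well plates and exposed to compound for 48 hours at five concentrations. Here, GI50 denotes the concentration required for 50% inhibition of growth.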 Calls of active or inactive are those of the source. Rule as the data show it: active = GI50 up to about 1.1 µM and inactive = higher.
Assays:
Assay in all cases: growth of human tumour cells (NCI), 48 h
NCI-H226 = tested on: NCI-H226
Hs-578T = tested on: Hs-578T
UO-31 = tested on: UO-31
NCI-H460 = tested on: NCI-H460
MDA-MB-231 = tested on: MDA-MB-231
T47D = tested on: T47D
MDA-N = tested on: MDA-N
HCT-116 = tested on: HCT-116
CAKI-1 = tested on: CAKI-1
UACC-257 = tested on: UACC-257
ACHN = tested on: ACHN
SK-MEL-28 = tested on: SK-MEL-28
SN12C = tested on: SN12C
COLO 205 = tested on: COLO 205
MOLT-4 = tested on: MOLT-4
UACC-62 = tested on: UACC-62
A498 = tested on: A498
HOP-92 = tested on: HOP-92

Measured: GI50

CCC(C)(C)c1ccc(Oc2cccc(C(=O)O)c2)cc1
inactive: NCI-H226 39.9 µM | Hs-578T 44 µM | UO-31 48.1 µM | NCI-H460 44.4 µM | MDA-MB-231 > 100 µM | T47D 33.7 µM | MDA-N 47.6 µM | HCT-116 41.5 µM | CAKI-1 65.6 µM | UACC-257 > 100 µM | ACHN 58.9 µM | SK-MEL-28 81.8 µM | SN12C 56.4 µM | COLO 205 38.8 µM | MOLT-4 29.9 µM | UACC-62 34.6 µM | A498 53.8 µM

O=C1c2cc(Cl)ccc2N=C(NC2CCCC2)C2CSCN12 (stereo unspecified)
inactive: NCI-H226 60 µM | Hs-578T 39.6 µM | UO-31 46.3 µM | NCI-H460 47.4 µM | MDA-MB-231 > 100 µM | T47D 42 µM | MDA-N > 100 µM | HCT-116 > 100 µM | CAKI-1 > 100 µM | UACC-257 71.6 µM | ACHN > 100 µM | SK-MEL-28 > 100 µM | SN12C > 100 µM | COLO 205 > 100 µM | MOLT-4 33.5 µM | UACC-62 > 100 µM | A498 68.9 µM

O=C(c1ccc(Cl)c(Cl)c1)N(C(=S)OC12CC3CC(CC(C3)C1)C2)c1ccccc1
inactive: NCI-H226 31.2 µM | Hs-578T 41.3 µM | UO-31 21.1 µM | HOP-92 31.8 µM | NCI-H460 37.8 µM | MDA-MB-231 38.3 µM | T47D 54.6 µM | MDA-N 32.7 µM | HCT-116 24.8 µM | CAKI-1 29.9 µM | UACC-257 41.2 µM | ACHN 34.8 µM | SK-MEL-28 44.6 µM | SN12C 26.9 µM | COLO 205 15.9 µM | UACC-62 25.1 µM | A498 37.1 µM

COc1cc(/C=C2/SC(c3ccccc3)N(c3cccc(NC(C)=O)c3)C2=O)cc(OC)c1OC (stereo unspecified)
inactive: NCI-H226 62.5 µM | Hs-578T 23.9 µM | UO-31 16.6 µM | HOP-92 85.3 µM | NCI-H460 71.9 µM | T47D 45.7 µM | MDA-N 25.5 µM | HCT-116 30.2 µM | CAKI-1 > 100 µM | UACC-257 67.8 µM | ACHN > 100 µM | SK-MEL-28 34 µM | SN12C 91.8 µM | COLO 205 41.9 µM | MOLT-4 31.3 µM | UACC-62 50.5 µM | A498 > 100 µM

CC1=C(C#N)C(C#N)(C#N)C(NN(C)C)C1 (stereo unspecified)
inactive: Hs-578T > 100 µM | UO-31 13.5 µM | HOP-92 15.1 µM | MDA-MB-231 14.2 µM | T47D 6.15 µM | MDA-N 10.1 µM | HCT-116 11 µM | CAKI-1 1.71 µM | UACC-257 10.6 µM | ACHN 13.3 µM | SK-MEL-28 23 µM | SN12C 14.1 µM | COLO 205 3.83 µM | MOLT-4 18.5 µM | UACC-62 15.9 µM | A498 20.9 µM

CC1=CCC([C@@](C)(O)CCCC(C)(C)N=C=S)CC1 (stereo partly specified)
inactive: NCI-H226 17.2 µM | Hs-578T 26.5 µM | UO-31 13.7 µM | HOP-92 18.5 µM | NCI-H460 16.5 µM | MDA-MB-231 19.1 µM | T47D 21 µM | MDA-N 18.4 µM | HCT-116 13.7 µM | UACC-257 19.4 µM | ACHN 16.8 µM | SK-MEL-28 16.6 µM | SN12C 18.1 µM | COLO 205 16.1 µM | MOLT-4 21.5 µM | UACC-62 16.9 µM | A498 15.3 µM

CCN(CCO)CC1CCCC2CCCCC21 (stereo unspecified)
inactive: NCI-H226 > 100 µM | Hs-578T > 100 µM | UO-31 > 100 µM | HOP-92 > 100 µM | NCI-H460 > 100 µM | MDA-MB-231 > 100 µM | T47D > 100 µM | MDA-N > 100 µM | HCT-116 > 100 µM | CAKI-1 > 100 µM | UACC-257 > 100 µM | ACHN > 100 µM | SK-MEL-28 > 100 µM | SN12C > 100 µM | COLO 205 > 100 µM | UACC-62 > 100 µM | A498 > 100 µM

CC(=O)OCCCCN1C(=O)CSc2ccccc21
inactive: Hs-578T > 100 µM | UO-31 76.7 µM | HOP-92 > 100 µM | NCI-H460 > 100 µM | T47D > 100 µM | MDA-N > 100 µM | HCT-116 > 100 µM | CAKI-1 > 100 µM | UACC-257 > 100 µM | ACHN > 100 µM | SK-MEL-28 > 100 µM | SN12C > 100 µM | MOLT-4 > 100 µM | UACC-62 > 100 µM | A498 > 100 µM

CC(C)C1CC=NN1C(=O)OC(C)(C)C (stereo unspecified)
inactive: NCI-H226 > 100 µM | Hs-578T > 100 µM | UO-31 > 100 µM | HOP-92 > 100 µM | NCI-H460 > 100 µM | T47D > 100 µM | MDA-N > 100 µM | HCT-116 > 100 µM | CAKI-1 > 100 µM | UACC-257 > 100 µM | ACHN > 100 µM | SN12C > 100 µM | COLO 205 > 100 µM | MOLT-4 > 100 µM | UACC-62 > 100 µM | A498 > 100 µM

COCC12CCC(OC)C34C5CC6(O)C(OC)C=C(C5C6OC(=O)c5ccccc5)C(C(OC)C13)C4N(C)C2 (stereo unspecified)
inactive: Hs-578T 27.1 µM | UO-31 > 100 µM | HOP-92 > 100 µM | NCI-H460 > 100 µM | MDA-MB-231 > 100 µM | T47D > 100 µM | MDA-N > 100 µM | HCT-116 > 100 µM | CAKI-1 > 100 µM | UACC-257 > 100 µM | ACHN > 100 µM | SK-MEL-28 > 100 µM | SN12C > 100 µM | COLO 205 > 100 µM | UACC-62 > 100 µM | A498 > 100 µM

CCOC(=O)[C@@H](Cc1ccc(CCl)cc1)NC(C)=O
inactive: NCI-H226 28.1 µM | Hs-578T 25.5 µM | UO-31 19.2 µM | HOP-92 23.4 µM | NCI-H460 19 µM | MDA-MB-231 27.1 µM | T47D 26.3 µM | MDA-N 19 µM | HCT-116 30.3 µM | CAKI-1 25.6 µM | UACC-257 17.2 µM | ACHN 20.5 µM | SK-MEL-28 27.5 µM | SN12C 24 µM | COLO 205 18.1 µM | MOLT-4 29.2 µM | UACC-62 15.9 µM

Cc1cc2nc(N3C(=O)/C(=C/c4ccc(Cl)cc4)N=C3c3ccccc3)sc2cc1C
inactive: Hs-578T 26 µM | UO-31 26.8 µM | HOP-92 8.55 µM | NCI-H460 23.7 µM | MDA-MB-231 50 µM | T47D 27.5 µM | MDA-N 12.5 µM | HCT-116 18.4 µM | CAKI-1 26.4 µM | UACC-257 28.4 µM | ACHN 37.7 µM | SK-MEL-28 55.7 µM | SN12C 24 µM | COLO 205 16.1 µM | MOLT-4 53.8 µM | UACC-62 30.8 µM | A498 32.9 µM

Cc1ccnc(NS(=O)(=O)c2ccc(NC(=O)c3ccc4nc5ccccc5c(Nc5ccc(S(=O)(=O)Nc6nccc(C)n6)cc5)c4c3)cc2)n1
inactive: NCI-H226 > 100 µM | Hs-578T 37.3 µM | UO-31 > 100 µM | HOP-92 23.2 µM | NCI-H460 65.3 µM | MDA-MB-231 40.7 µM | T47D 30.8 µM | MDA-N 62.4 µM | HCT-116 59 µM | CAKI-1 > 100 µM | UACC-257 > 100 µM | ACHN > 100 µM | SK-MEL-28 > 100 µM | SN12C 60.3 µM | COLO 205 > 100 µM | MOLT-4 39.9 µM | UACC-62 38.3 µM

COc1cc(-c2nc(N)c(C#N)c3c2CCS(=O)(=O)c2ccc(C)cc2-3)cc(OC)c1OC
inactive: NCI-H226 9.46 µM | Hs-578T 33.8 µM | UO-31 > 100 µM | HOP-92 9.16 µM | NCI-H460 > 100 µM | MDA-MB-231 17.3 µM | T47D 98.2 µM | MDA-N > 100 µM | HCT-116 > 100 µM | CAKI-1 > 100 µM | UACC-257 > 100 µM | ACHN 28.6 µM | SK-MEL-28 > 100 µM | SN12C 39.6 µM | COLO 205 > 100 µM | UACC-62 > 100 µM | A498 29.4 µM

O=C(c1ccccc1)c1ccc(N2C(=O)/C(=C/c3cccc([N+](=O)[O-])c3)N=C2c2ccccc2)c(N2C(=O)/C(=C/c3cccc([N+](=O)[O-])c3)N=C2c2ccccc2)c1
inactive: Hs-578T 30.7 µM | UO-31 66.7 µM | HOP-92 82.2 µM | NCI-H460 5.28 µM | MDA-MB-231 > 100 µM | T47D 24 µM | MDA-N 21.7 µM | HCT-116 39.4 µM | CAKI-1 49.8 µM | UACC-257 36.2 µM | ACHN 53.2 µM | SK-MEL-28 78.3 µM | SN12C 98.4 µM | COLO 205 2.77 µM | MOLT-4 20.5 µM | UACC-62 20.8 µM | A498 19.3 µM

COc1cc(C2=C(C)[C@@H]3CN(CC=C3c3ccc(Cl)cc3)C2)c(S(=O)(=O)O)cc1OC
inactive: NCI-H226 > 100 µM | Hs-578T > 100 µM | UO-31 > 100 µM | HOP-92 > 100 µM | MDA-MB-231 > 100 µM | T47D > 100 µM | MDA-N > 100 µM | HCT-116 > 100 µM | CAKI-1 > 100 µM | UACC-257 > 100 µM | ACHN > 100 µM | SK-MEL-28 > 100 µM | SN12C > 100 µM | COLO 205 > 100 µM | MOLT-4 > 100 µM | UACC-62 > 100 µM
